Results from patent US20120172344A1, “INSULIN-PRODUCING CELL INDUCER, GLUCOSE INTAKE ENHANCER, AND THERAPEUTIC AGENT FOR DIABETES OR DIABETES COMPLICATIONS” (KYUSHU UNIVERSITY, NATIONAL UNIVERSITY CORPORATION, priority 2009, published 2012).

Key:
Assay type in all cases: in vivo, mouse
[1] = test system: Tg23 mice (diabetic nephropathy); test: Experimental Example 2: effect of estradiol on second to third stage of diabetic nephropathy
Method: (a) Albumin concentration: Albuwellkit (Exocell),
(b) Creatinine: High-performance liquid chromatography (HPLC), and
(c) Creatinine clearance (Ccr): calculated by the next formula.
Ccr=urine creatinine (mg/dL)×urine volume (μL/min)/serum creatinine (mg/dL)/body weight (g). [Math. 1]
50 glomeruli were analyzed for each of the mice. The total area of the glomeruli was measured in PAS-stained sections using Image-Pro Plus (Media Cybernetics). The PAS-positive area fraction was calculated as the ratio of PAS-positive area to glomerular sectional surface area. Glomerular number was measured by counting all of the glomeruli per mid-transverse section of left kidney for each of the mice.
For Tg23 mice, at 20-35 weeks of age, which is when reduction in renal functions and renal lesions are observed, a single pellet of 17β-estradiol was subcutaneously administered, and the effect of estradiol was investigated. […]
PAS staining, and immunostaining using the anti-collagen type IV antibody were performed on glomerular tissues from each of the mice (48 weeks of age), and the results of the staining are shown respectively in FIG. 2(1) and FIG. 2(2). […] The expression intensity was measured in random fields (n=30/section) of the glomerulus, and the result was expressed as average pixel intensity.

[2] = test system: muscles (soleus muscle) of Tg23 mice; test: Experimental Example 3: glucose (2-deoxy-D-glucose) intake of soleus muscles; details: Tg mice, Tx-E group vs Ct group, 20-40 weeks after the administration
Method: Mice were sacrificed, and extensor digitorum longus (EDL) muscles and soleus muscles were quickly removed and processed. Both ends of each of the muscles were tied with suture (silk 4-0), and mounted on an incubation apparatus. First, the muscles were preincubated for 20 minutes in 6 ml of Krebs-Ringer bicarbonate (KRB) buffer (117 mM NaCl, 4.7 mM KCl, 2.5 mM CaCl2, 1.2 mM KH2PO4, 1.2 mM MgSO4, 24.6 mM NaHCO3, pH 7.5) containing 2 mM pyruvate. Then, the muscles were incubated in KRB buffer in presence or absence of insulin.
Immediately after muscle incubation, the muscles were transferred to KRB buffer containing 1 mM 2-deoxy-D-[^3H]glucose (1.5 μCi/ml) and 7 mM D-[^14C]mannitol (0.3 μCi/ml) (PerkinElmer Life Sciences) at 30° C., and incubated again for 10 minutes. When using insulin, a buffer containing insulin was used for incubation in a similar manner.
Glucose transport was terminated by dipping the muscles in KRB buffer containing 80 μmol/L cytochalasin B at 4° C., and then the muscles were frozen in liquid nitrogen. The muscles were weighed, and digested by incubating in 250 μl of 1 M NaOH at 80° C. for 10 minutes. Digests were neutralized with 250 μl of 1 M HCl. […] Radioactivity in aliquots of the digested muscle was determined by liquid scintillation counting for dual labels, and extracellular and intracellular spaces were calculated. […]

Tg23 mice = test: Experimental Example 5: β-cell neogenesis and electron microscopy of pancreas
Method: Pancreases were fixed in 10% formalin, embedded in paraffin, and sliced into sections having a thickness of 2 μm. The sections were immunostained with overnight incubation at 4° C. in dilution solutions containing various primary antibodies described below.
Primary antibodies: Anti-insulin antibody (dilution rate 1:500; DAKO), anti-glucagon antibody (dilution rate 1:500; Linco Research Inc.), anti-DBA antibody (dilution rate 1:300; Vector Laboratories), anti-Pdx-1 antibody (dilution rate 1:1000; kindly provided by Chris V. E. Wright, Vanderbilt University), anti-collagen type IV antibody (dilution rate 1:250; PROGEN Biotechnik), and anti-Glut 4 antibody (dilution rate 1:1000; Chemicon).
The primary antibodies were detected by immunofluorescence labeling using secondary antibodies conjugated with Alexa 488 or Alexa 568 (1:200; Molecular Probes); third antibody conjugated with biotin-labeled secondary antibodies and streptavidin Alexa 488 or Alexa 568 (1:800; Vector Laboratories); or by an immunoperoxidase staining method using biotin-labeled secondary antibodies. Staining was visualized with diaminobenzidine. […] Immunofluorescence intensity was measured in random fields (n=30/section) using LSM Zeiss software, and the result was expressed as average pixel intensity.
All pancreatic islets, glucagon positive cells, and insulin-positive cells existing on a single pancreas section were photographed on a Keyence Biorevo microscope, and five to seven sections corresponding to areas that are at least 150 μm apart from one another were evaluated for a single pancreas (a single group includes five to eight males and six to nine females). Areas of β-cells and pancreatic islets were measured for each of the sections using Image Joint and Dynamic Cell Count software (Keyence). […]
Experimental Example 5: Effect of estradiol administration (III) Tg23 mice (23-24 weeks of age) were divided into two groups (each group: n=4 to 10): an estradiol administration group and a control group. […] Then, blood glucose levels of these mice were monitored every week. […]

C[C@]12CC[C@@H]3c4ccc(O)cc4CC[C@H]3[C@@H]1CC[C@@H]2O [estradiol, 17β-estradiol]
sclerosis of the glomeruli (PAS staining, collagen IV immunostaining) ([1]; Tg23 mice treated at 24 weeks of age (Tx + single 17β-estradiol pellet s.c.), tissues at 48 weeks of age): alleviated to a degree not different from wild-type mice | renal functions and renal tissues (GFR, Ualb/Cr, kidney weight, urinary glucose, urine volume) ([1]; Tg23 mice, second stage of diabetic nephropathy (early nephropathia stage), Tx + single 17β-estradiol pellet s.c.): dramatically improves | amount of glucose intake of muscles [2]: significantly increases | neogenesis of β-cells (insulin-producing cells and Pdx-1 in pancreatic duct epithelial cells) (Tg23 mice; Tg23 mice 23-24 weeks of age, Tx+E group vs Tg group): enhanced | mature β-cells (Tg23 mice; Treatment group, 48 weeks of age, electron microscope): formed | insulin secretory granules in pancreatic tissue (electron microscope) (Tg23 mice; Tx+E group (Treatment), 48 weeks of age): observed
